Measurements as given in BindingDB's records for doi:10.1016/j.ejmech.2018.08.069 (Kanazawa University, 2018).
pIC50: −log10 of the molar value.

assay: Antagonist activity at AR in human LNCAP cells assessed as reduction in DHT-induced cell growth treated for every 2 days for 4 days by hemocytometry

| SMILES | pIC50 |
| --- | --- |
| COc1ccc(O)c(C(=O)/C=C/c2ccccc2OC)c1 | < 5.00 |
| CC(C)Oc1ccccc1/C=C/C(=O)c1cc(Br)ccc1O | 5.04 |
| O=C(/C=C/c1ccccc1O)c1cc(Cl)ccc1O | 5.43 |

Second part, the compound after the results:

| pIC50 | SMILES |
| --- | --- |
| 5.19 | O=C1CC(c2ccccc2O)Oc2ccccc21 (stereo not given) [2-(2-Hydroxy-phenyl)-chroman-4-one] |
| < 5.00 | O=c1cc(-c2ccccc2O)oc2ccccc12 [2-(2-Hydroxyphenyl)-4H-chromen-4-one (3d)] |
